This is an account of results in PubChem BioAssay AID2305 (GlaxoSmithKline (GSK), 2010).

Molecules are shown by their SMILES.

The assay deals with P. falciparum 3D7 growth, pLDH absorbance. Put plainly: blood-stage malaria parasite growth potency – strain 3D7, dose response (AID 2305).
Molecule `COc1cc2c(cc1S(=O)(=O)c1ccc(NC(=O)Nc3ccc(F)cc3)cc1)CCN(C)CC2` displayed an IC50 of 470 nM.

`C=Cc1c(C2CCN(CCCCNC(=O)c3ccc(-c4ccc(C#N)cc4)cc3)CC2)ccc2c1CCCC2` returned an IC50 of 880 nM.

`COc1ccc(N2C(N)=NC(N)=NC2(C)C)cc1OC` displayed an IC50 of 310 nM.

`Cc1cc(OCCCNc2nc(NCCc3ccc(O)cc3)nc(N3CCNCC3)n2)c(Cl)c(C)c1Cl` yielded an IC50 of 960 nM.

Molecule `Cn1c(=O)c2nc(-c3ccc(Cl)cc3)nnc2n(CCCC#N)c1=O` yielded an IC50 of 150 nM.

Molecule `CC[C@H]1CN2CC[C@H]1C[C@@H]2[C@H](O)c1ccnc2ccc(O)cc12` registered an IC50 of 1040 nM.

Regarding `COc1ccccc1NC(=O)Nc1ccc(-c2cccc(-c3nc4ccccc4[nH]3)c2)cc1`, the IC50 came to 640 nM.

The molecule `NC(=O)c1ccccc1Nc1nc(Nc2ccn[nH]2)ncc1Cl` gave a half-inhibitory concentration (IC50) of 960 nM.

`COc1cc(NC(=O)c2cc([N+](=O)[O-])ccc2NC(=O)CNC2CCCC(C)C2C)cc(OC)c1` (centres undefined) had an IC50 of 1040 nM.

`COc1ccc(CNC(=O)c2cnc3c(O)cccc3c2Nc2cccc(NC(=O)c3ccc(-c4ccccc4)cc3)c2)cc1` showed an IC50 of 940 nM.

Turning to `C[C@@H]1CN(c2cnn(C/C=C/c3ccc(NC(=O)c4ccc([N+](=O)[O-])cc4)cc3)c(=O)c2Cl)C[C@H](C)N1`, the IC50 was 700 nM.

Take `CN1CCN(CC(=O)Nc2ccc(-c3cccc(-c4nc5ccc(C(F)(F)F)cc5[nH]4)c3)cc2)CC1`: the IC50 came to 400 nM.

Molecule `CSc1ccc(CN2CCC(NC(=O)c3ccc(-c4cccc(C(F)(F)F)c4)s3)CC2)cc1` had an IC50 of 1220 nM.

`COc1ccc(NC(=O)/C=C/c2ccc(-c3ccc(-c4noc(C)n4)cc3)cc2)cc1OCCN(C)C` displayed an IC50 of 1370 nM.

In the case of `CC1CN=C(c2cccc(NC(=O)Nc3cccc(C4=NCC(C)N4)c3)c2)N1` (centres undefined), the IC50 was 360 nM.

Turning to `NC(=O)c1ccc(-c2ccc3ccnc(N)c3c2)cc1`, the 50% inhibitory concentration (IC50) amounted to 420 nM.

In the case of `CCCCCCc1c(C)[nH]c2cc(OC)ccc2c1=O`, the IC50 was 120 nM.

As to `CCc1c(C(=O)NC2CCC(N3CCC(c4ccccc4C)CC3)CC2)[nH]c2ccc(OC)cc12` (centres undefined), the half-inhibitory concentration (IC50) came to 810 nM.

The molecule `COc1ccccc1NC(=O)Nc1cccc(-c2cccc(-c3nc4c(C)cccc4[nH]3)c2)c1` registered an IC50 of 100 nM.

In turn, `COc1nc2c(CCN3CCC(NCc4ccc5c(n4)NC(=O)CO5)CC3)c(Cl)cnc2cc1F` gave an IC50 of 420 nM.

With `COc1cccc(CNC[C@@H](O)[C@H](Cc2ccccc2)NC(=O)c2cc(C3CCCC3)cc(N3CCCCS3(=O)=O)c2)c1`, the IC50 amounted to 600 nM.

Molecule `Cc1cc(NN=Cc2ccccc2Cl)c2ccc(F)cc2n1` yielded an IC50 of 260 nM.

`N=c1ccn(CC(=NO)c2ccc(Cl)c(Cl)c2)cc1` had an IC50 of 940 nM.

For the molecule `CCCC1(NC[C@@H](O)[C@H](Cc2ccccc2)NC(=O)c2cc(NCC)cc(N3CCCCS3(=O)=O)c2)CCCCC1`, the IC50 came out at 250 nM.

Molecule `Cc1[nH]c(C)c(-c2ccc(OCc3ccc(F)cc3)nc2)c(=O)c1Br` showed an IC50 of 200 nM.

In the case of `CCCC(C)c1cnc2nc(N)nc(N)c2c1C` (centres undefined), the IC50 amounted to 30 nM.

For the molecule `COc1ccc(Nc2ncc3c(-c4cccc(NC(=O)CC(C)C)c4)c[nH]c3n2)cc1OC`, the IC50 came out at 830 nM.

In the case of `CCc1c(C)nc(-n2nc(C)cc2NC(=O)c2ccc(OC)cc2OC)[nH]c1=O`, the IC50 stood at 830 nM.

As for `N#Cc1cccc(NC(=O)NC2CCN(CCCCCNC(=O)[C@@H]3C[C@H]3c3ccc(Cl)c(Cl)c3)CC2)c1`, the IC50 worked out at 790 nM.

`O=C(NC1CCN(CCC[C@]2(c3ccc(Cl)c(Cl)c3)CCCN(C(=O)c3ccccc3)C2)CC1)c1ccc(F)cc1` came in with an IC50 of 880 nM.

The molecule `CN(C)Cc1c(O)ccc2[nH]c(-c3ccc(OC(F)(F)F)cc3)nc12` registered an IC50 of 730 nM.

`CC(C)C[C@H](Nc1ccc(C#N)c2ccccc12)C(=O)N[C@@H]1CCCc2ccccc21` yielded an IC50 of 760 nM.

`Cn1cncc1C(=O)Nc1cccc(-c2ccc(-c3nc4ccccc4[nH]3)s2)c1` showed an IC50 of 800 nM.

Consider `CCN(C1CCCCC1)S(=O)(=O)c1ccc(OC)c(N2CCN(C(=O)C(Cl)(Cl)Cl)CC2)c1`, for which the IC50 was 630 nM.

The molecule `CN1CCC(N(C)c2nccc(N3CCN(Cc4cncn4Cc4ccccc4)CC3)n2)CC1` displayed an IC50 of 700 nM.

`Cc1ccc(C(=O)NC2CC2)cc1-c1ccc2c(cnn2S(=O)(=O)c2ccc(F)cc2)c1` had an IC50 of 290 nM.

With `N#Cc1ccc(NC(=NCc2ccc(Cl)cc2Cl)Nc2cccc(Cl)c2Cl)c(O)c1`, the IC50 turned out to be 1120 nM.

With `CC1=C(C(=O)Nc2ccccc2)C(c2ccc([N+](=O)[O-])cc2)n2ncc(C(=O)Nc3ccccc3)c2N1` (centres undefined), the IC50 was determined as 1240 nM.

As for `CN1CCc2ccc(NC(=O)Nc3cccc([N+](=O)[O-])c3)cc2C1`, the IC50 was 1100 nM.

As to `O=C(O)c1ccc(NC(=O)C2CC(=O)N(Cc3ccc(Cl)cc3)C(=Nc3ccc(Cl)cc3)S2)cc1` (centres undefined), the 50% inhibitory concentration (IC50) was found to be 530 nM.

`CCCCCc1cc(O)c2c(c1)OC(C)(C)CC2C1=CCN(Cc2cnc3ccccc3c2)CC1` (centres undefined) had an IC50 of 280 nM.

The molecule `CCOc1ccc2c(c1)OC(c1ccccc1)(C(F)(F)F)NC2=O` (centres undefined) showed an IC50 of 170 nM.

On to `CCN(CCCN1CCCCC1)c1cc(C)nc(Nc2cccc(C(F)(F)F)c2)n1`, for which the IC50 turned out to be 290 nM.

`CCCNc1nc(Nc2ccccc2C)nc2ccccc12` showed an IC50 of 890 nM.

In the case of `CN1CCN(C(=O)CN2CCC3(CCC2=O)NC(=O)c2ccccc2O3)CC1` (centres undefined), the IC50 worked out at 210 nM.

For the molecule `COc1cc2nc(N[C@@H](CO)c3ccccc3)nc(NCc3ccccc3)c2cc1OC`, the IC50 was 660 nM.

`COc1cc(Nc2ncc3c(C)nc(-c4cc5ccccc5[nH]4)n3n2)cc(OC)c1OC` returned an IC50 of 1020 nM.

With `CC(=O)Nc1ccc(S(=O)(=O)N2CCN(c3nc(NC4CCCC4)c4ccccc4n3)CC2)cc1`, the IC50 came out at 1030 nM.

`CC1(C)OC[C@]2(C)[C@@H](CC[C@]3(C)C4=CC(=O)CCC4CC[C@@H]23)O1` (some centres undefined) yielded a 50% inhibitory concentration (IC50) of 280 nM.

`Cc1cc(OCCCN2CCC(NS(=O)(=O)c3ccc(Cl)c(Cl)c3)C2)c2ccccc2n1` (centres undefined) yielded an IC50 of 1050 nM.

Regarding `OC(CNCc1ccccc1OCc1ccccc1)c1cccc(Br)c1` (centres undefined), the IC50 amounted to 640 nM.

Consider `Nc1ccc(-c2ccc(NC(=O)Nc3ccccc3)cc2)cn1`, for which the IC50 worked out at 920 nM.

On to `COc1cccc2sc(Nc3nc(-c4ccccn4)cs3)nc12`, for which the IC50 stood at 800 nM.

Turning to `CC(C)(C)c1ccc2nccc(Nc3cccc(O)c3)c2c1`, the IC50 was determined as 970 nM.

In turn, `CC(COc1ccc2c(c1)OC(C)(C)CC2c1ccccc1)NCC(O)c1cccc(Cl)c1` (centres undefined) registered an IC50 of 750 nM.

As for `CCNc1cc(C(=O)N[C@@H](Cc2ccccc2)[C@H](O)CNCc2cc(C#N)ccc2OC)cc(N2CCCC2=O)c1`, the IC50 came out at 1230 nM.

The molecule `NCCNc1ccnc2cc(Cl)ccc12` displayed an IC50 of 130 nM.

As for `C#CC(C)(CO)N1CCCC1` (centres undefined), the IC50 worked out at 380 nM.

`O=C(NCc1cccc(F)c1)Nc1cccc(-c2ccc(-c3nc4ccc(F)cc4[nH]3)cc2)c1` yielded an IC50 of 1050 nM.

`O=S(=O)(Nc1cc2c(cc1O)CCNCC2)c1ccc(-c2ccc(Cl)cc2)cc1` showed an IC50 of 980 nM.

`CN(CCCN(C)c1cc(NC(=O)c2cccc(F)c2)ccn1)Cc1cccc(O)c1` gave an IC50 of 1920 nM.

As for `CCCNC(=O)c1ccnc(-c2ccc(CNC3Cc4ccccc4C3)cc2)c1`, the IC50 was 940 nM.

`CCCCC1(c2ccc(F)cc2)NC(=O)N(CC(=O)c2cc(C)n(Cc3ccco3)c2C)C1=O` (centres undefined) gave an IC50 of 980 nM.

The molecule `CCCN1CCN(c2ccc(NS(=O)(=O)c3ccc(C(=O)Nc4ccc(Cl)cc4)cc3)cc2)CC1` had an IC50 of 1110 nM.

`O=c1cc(NCCC2CC=CCN2Cc2ccc(Cl)c(Cl)c2)[nH]c2ccccc12` (centres undefined): the IC50 was determined as 1730 nM.

Molecule `CCCCC(N)COc1cccc2c(-c3ccncc3)c(-c3cccc(NC(=O)Nc4ccccc4)c3)nn12` (centres undefined) had an IC50 of 880 nM.

With `O=C(Nc1ccccc1)N(Cc1cccc(-c2ccc(CNC3CCCC3)cc2)c1)C1CCN(Cc2ccccc2)CC1`, the 50% inhibitory concentration (IC50) stood at 390 nM.

For `O=C(Nc1cccc(C(F)(F)F)c1)Nc1ccc(Cl)c(Cl)c1`, the IC50 came to 740 nM.

Turning to `O=C(CSc1nccn1C1CCCC1)Nc1cc(C(F)(F)F)ccc1Cl`, the IC50 is 380 nM.

For `CCN(CC)CCCC(C)Nc1c(-c2ccc(C)cc2)cnc2ccccc12` (centres undefined), the IC50 amounted to 200 nM.

The molecule `C(=N\Nc1nccc2sc(-c3ccccc3)cc12)/c1cccnc1` registered an IC50 of 820 nM.

Consider `CN(CCC1CCN(C(=O)/C=C/c2ccc(Cl)c(Cl)c2)CC1)C1CCC(c2c[nH]c3ccccc23)CC1` (centres undefined), for which the IC50 stood at 770 nM.

In the case of `CCCCSc1ccc2nc(-c3c[nH]c4ccc(C#N)cc34)cn2c1`, the IC50 stood at 950 nM.

For the molecule `CN1CCC(Oc2ccc(CN3CC[C@H](NC(=O)c4ccc(Cl)c(Cl)c4)C3)c3ccccc23)C1` (some centres undefined), the half-maximal inhibitory concentration (IC50) came out at 880 nM.

With `CCNc1cc(C(=O)N[C@@H](Cc2ccccc2)[C@H](O)CNCc2cccc(-c3cncnc3)c2)cc(N2CCCC2=O)c1`, the IC50 was 660 nM.

In turn, `O=c1cc(NCCCNCc2cccc(I)c2)[nH]c2ccccc12` displayed an IC50 of 1020 nM.

With `O=C(N[C@@H](CC1CCCCC1)C(=O)NCCN1CCCC1)c1ccc(O)c(-c2ccc(Cl)c(Cl)c2)c1`, the concentration for half-maximal inhibition (IC50) amounted to 310 nM.

Take `Cc1nc(-c2nc(N3CCC(C(N)=O)CC3)ncc2-c2ccsc2)sc1C`: the IC50 was found to be 900 nM.

With `CC1(C)N=C(N)N=C(N)N1c1ccc(Oc2ccccc2)cc1`, the IC50 amounted to 340 nM.

For the molecule `Cc1cccc(CNc2nc(C)cc(N[C@@H](CC(C)C)C(=O)NCc3cccc(F)c3)n2)c1`, the IC50 is 1180 nM.

As to `Cc1[nH]c(C)c(-c2ccc(Oc3ccc(O)cc3)cc2)c(=O)c1Cl`, the IC50 came out at 1040 nM.

`Brc1ccc(Nc2ccnc3cc(-c4nccs4)ccc23)cc1Oc1ccnc2cc(-c3nccs3)ccc12` came in with an IC50 of 1060 nM.

With `Cc1ccc2c(Cl)c(C(=O)N3CCCc4ccccc43)sc2c1`, the IC50 was 1510 nM.

Molecule `CCCCCCCc1c(C)[nH]c2cccc(OC)c2c1=O` registered an IC50 of 1130 nM.

`COc1cccc(-c2cc3nc4c(c(NCCCn5ccnc5)n3n2)CCCC4)c1`: the IC50 worked out at 680 nM.

Molecule `Nc1ccc2nc(C=Cc3ccccc3)[nH]c2c1` showed an IC50 of 750 nM.

Regarding `O=C(c1ccc(-c2ccccn2)s1)N1CCc2cc3nccc(N4CCN5CCC[C@H]5C4)c3cc21`, the IC50 is 760 nM.

`C[C@H](Cc1ccc(OCCCCOc2ccc(C[C@@H](C)NC[C@H](O)c3cccc(Cl)c3)cc2)cc1)NC[C@H](O)c1cccc(Cl)c1` showed an IC50 of 760 nM.

`N=C(N)c1ccc(C=Cc2ccc(C(=N)N)cc2O)cc1`: the IC50 was determined as 100 nM.

What is called IC50 is the concentration needed to halve the response being measured.
